Data from DBAASP.
≈ marks a conversion by molar mass, not a printed value.

Assays:
Assay in all cases: ≥ marks a high value that may be exact or a test limit, other limits are often not marked, values filed in µg/mL are converted to µM
[1] = tested on: Mannheimia haemolytica 82-25
[2] = tested on: Acinetobacter baumannii ATCC 17987
[3] = tested on: Acinetobacter baumannii AYE
[4] = tested on: Enterococcus faecalis NCTC 12201
[5] = tested on: Enterococcus faecalis NCTC 12204
[6] = tested on: Enterococcus faecalis NCTC 775
[7] = tested on: Escherichia coli NCTC 12923
Klebsiella pneumoniae M6 = tested on: Klebsiella pneumoniae M6
[8] = tested on: Klebsiella pneumoniae NCTC 13368
[9] = tested on: Pseudomonas aeruginosa NCTC 13437
[10] = tested on: Pseudomonas aeruginosa PAO1
[11] = tested on: Pseudomonas syringae pv. tomato
Staphylococcus aureus 15 = tested on: Staphylococcus aureus 15
[12] = tested on: Staphylococcus aureus NCTC 9144
[13] = tested on: Xanthomonas axonopodis pv. phaseoli
Escherichia coli 078 = tested on: Escherichia coli 078
[14] = tested on: Escherichia coli ATCC 25922
Escherichia coli UB1005 = tested on: Escherichia coli UB1005
[15] = tested on: Lacticaseibacillus rhamnosus 7469
[16] = tested on: Pseudomonas aeruginosa ATCC 27853
[17] = tested on: Salmonella enterica subsp. enterica serovar Pullorum ATCC 7913
[18] = tested on: Salmonella enterica subsp. enterica serovar Typhimurium ATCC 14028
[19] = tested on: Salmonella enterica subsp. enterica serovar Typhimurium C77-31
[20] = tested on: Staphylococcus aureus ATCC 25923
[21] = tested on: Staphylococcus aureus ATCC 29213
[22] = tested on: Staphylococcus epidermidis ATCC 12228
[23] = tested on: Streptococcus agalactiae CICC 10465
Streptococcus agalactiae = tested on: Streptococcus agalactiae
[24] = tested on: Streptococcus thermophilus YM-C
[25] = tested on: Acinetobacter baumannii ATCC 19606
[26] = tested on: Escherichia coli D31 CGSC 5165
[27] = tested on: Pseudomonas aeruginosa ATCC 47085
[28] = tested on: Staphylococcus aureus ATCC 35556
[29] = tested on: Bacillus subtilis CICC 24434
Escherichia coli E44813 = tested on: Escherichia coli E44813
[30] = tested on: Listeria monocytogenes CICC 21533
[31] = tested on: Pasteurella multocida C48-3
[32] = tested on: Salmonella enterica subsp. enterica serovar Choleraesuis C78-1
[33] = tested on: Salmonella typhimurium SL1344
[34] = tested on: Shigella flexneri CICC 21534
[35] = tested on: Staphylococcus epidermidis LY8
[36] = tested on: Candida albicans FRR 5580
[37] = tested on: Pseudomonas aeruginosa ATCC 9027
Staphylococcus aureus = tested on: Staphylococcus aureus

Work on `C[C@H](N)C(=O)N[C@@H](C)C(=O)N[C@@H](CC(=O)O)C(=O)N[C@@H](CC(=O)O)C(=O)N[C@@H](CC(=O)O)C(=O)N[C@@H](CC(=O)O)C(=O)N[C@@H](CC(=O)O)C(=O)O` [AADDDDD] yielded an MIC [1] of 30 µM (≈ 22.1 µg/mL).

Compound `CC[C@H](C)[C@H](NC(=O)[C@H](CCC(=O)O)NC(=O)[C@H](CC(N)=O)NC(=O)[C@H](CCCCN)NC(=O)[C@H](CC(C)C)NC(=O)[C@H](CCCCN)NC(=O)[C@H](CCCCN)NC(=O)[C@H](CCCN=C(N)N)NC(=O)[C@@H](NC(=O)[C@H](CCCCN)NC(=O)[C@H](CCC(=O)O)NC(=O)[C@H](CCCCN)NC(=O)[C@H](Cc1c[nH]c2ccccc12)NC(=O)[C@H](C)N)[C@@H](C)CC)C(=O)N[C@@H](CCCCN)C(=O)N[C@@H](CCCCN)C(=O)N[C@@H](CCCCN)C(=O)NCC(=O)N[C@@H](CCCN=C(N)N)C(=O)N[C@@H](CCCCN)C(=O)N[C@@H](C)C(=O)N[C@H](C(=O)N[C@H](C(=O)N[C@@H](C)C(=O)N[C@@H](Cc1c[nH]c2ccccc12)C(=O)O)[C@@H](C)CC)C(C)C` [AWKEKIRKKLKNEIKKKGRKAVIAW] has an MIC [2] of 5.24 µM (≈ 16 µg/mL), an MIC [3] of 2.62 µM (≈ 8 µg/mL) and an MIC [4] of no less than 42 µM. The MIC [5] was no less than 42 µM, the MIC [6] was no less than 42 µM and the MIC [7] was 2.62 µM (≈ 8 µg/mL). For the same compound, the MIC (Klebsiella pneumoniae M6) was no less than 42 µM, the MIC [8] was no less than 42 µM and the MIC [9] was no less than 42 µM. It also gave an MIC [10] greater than 42 µM, an MIC [11] of 0.164 µM (≈ 0.5 µg/mL) and an MIC (Staphylococcus aureus 15) of no less than 42 µM. For the same compound, the MIC [12] was 5.24 µM (≈ 16 µg/mL) and the MIC [13] was 0.164 µM (≈ 0.5 µg/mL).

Work on `CC[C@H](C)[C@H](NC(=O)[C@H](CC(C)C)NC(=O)[C@@H](NC(=O)[C@@H](N)CC(=O)O)[C@@H](C)CC)C(=O)N[C@H](C(=O)N[C@H](C(=O)NCC(=O)NCC(N)=O)C(C)C)[C@@H](C)CC` [DILIIVGG] yielded an MIC (Escherichia coli 078) of no less than 64 µM, an MIC [14] greater than 64 µM and an MIC (Escherichia coli UB1005) of no less than 64 µM. It also gave an MIC [15] of no less than 64 µM, an MIC [16] greater than 64 µM and an MIC [17] of no less than 64 µM. For the same compound, the MIC [18] was greater than 64 µM, the MIC [19] was no less than 64 µM and the MIC [20] was greater than 64 µM. For the same compound, the MIC [21] was greater than 64 µM, the MIC [22] was greater than 64 µM and the MIC [23] was no less than 64 µM. For the same compound, the MIC (Streptococcus agalactiae) was no less than 64 µM and the MIC [24] was no less than 64 µM.

Work on `CC[C@H](C)[C@H](NC(=O)[C@H](CCCN=C(N)N)NC(=O)CNC(=O)[C@H](CC(C)C)NC(=O)[C@@H](NC(=O)[C@H](C)NC(=O)[C@H](CCCN=C(N)N)NC(=O)CNC(=O)[C@H](C)NC(=O)CNC(=O)[C@H](CCCN=C(N)N)NC(=O)[C@H](CCSC)NC(=O)[C@H](CCCN=C(N)N)NC(=O)[C@@H](NC(=O)[C@H](Cc1c[nH]c2ccccc12)NC(=O)[C@H](CC(C)C)NC(=O)[C@H](CCC(=O)O)NC(=O)[C@H](CCCN=C(N)N)NC(=O)[C@H](CC(C)C)NC(=O)[C@@H](N)CC(C)C)[C@@H](C)O)C(C)C)C(=O)N[C@@H](CCCN=C(N)N)C(=O)NCC(=O)N[C@@H](CC(C)C)C(=O)N[C@@H](CC(C)C)C(=O)O` [LLRELWTRMRGAGRAVLGRIRGLL] yielded an MIC [25] of 0.94 µM (≈ 2.6 µg/mL), an MIC [26] of 0.94 µM (≈ 2.6 µg/mL) and an MIC [27] of 15 µM (≈ 41.5 µg/mL). The MIC [28] was 1.88 µM (≈ 5.2 µg/mL).

`CC[C@H](C)[C@H](NC(=O)[C@@H](NC(=O)[C@H](Cc1ccccc1)NC(=O)[C@H](CCCCN)NC(=O)[C@@H]1CCCN1C(=O)[C@H](CCCCN)NC(=O)[C@H](CCC(N)=O)NC(=O)[C@@H]1CCCN1C(=O)[C@H](CCCN=C(N)N)NC(=O)[C@H](CCCN=C(N)N)NC(=O)[C@@H](NC(=O)[C@H](CCCN=C(N)N)NC(=O)[C@H](Cc1c[nH]c2ccccc12)NC(=O)[C@H](CC(C)C)NC(=O)[C@H](CC(C)C)NC(=O)[C@H](CC(=O)O)NC(=O)[C@@H](NC(=O)[C@@H](NC(=O)[C@@H](N)CCCN=C(N)N)[C@@H](C)CC)[C@@H](C)CC)C(C)C)C(C)C)C(=O)N[C@H](C(=O)N[C@@H](Cc1c[nH]c2ccccc12)C(=O)N[C@H](C(=O)N[C@@H](CCCN=C(N)N)C(=O)O)C(C)C)C(C)C` [RIIDLLWRVRRPQKPKFVIVWVR] gave an MIC [29] of 0.524 µM (≈ 1.56 µg/mL), an MIC (Escherichia coli E44813) of 4.2 µM (≈ 12.5 µg/mL) and an MIC [30] of no less than 42 µM. The MIC [31] was 1.05 µM (≈ 3.12 µg/mL), the MIC [32] was 0.262 µM (≈ 0.78 µg/mL) and the MIC [33] was 0.524 µM (≈ 1.56 µg/mL). For the same compound, the MIC [34] was 25.2 µM (≈ 75 µg/mL), the MIC [20] was 0.0084 µM (≈ 0.025 µg/mL) and the MIC [35] was 8.4 µM (≈ 25 µg/mL).

`NCCCC[C@H](NC(=O)[C@H](Cc1c[nH]c2ccccc12)NC(=O)[C@H](Cc1c[nH]c2ccccc12)NC(=O)[C@H](CCCCN)NC(=O)[C@H](Cc1c[nH]c2ccccc12)NC(=O)[C@H](Cc1c[nH]c2ccccc12)NC(=O)[C@H](CCCN=C(N)N)NC(=O)[C@H](Cc1c[nH]c2ccccc12)NC(=O)[C@H](Cc1c[nH]c2ccccc12)NC(=O)[C@H](CCCN=C(N)N)NC(=O)[C@H](CCCCN)NC(=O)[C@@H](N)CCCN=C(N)N)C(=O)N[C@@H](CCCN=C(N)N)C(N)=O` [RKRWWRWWKWWKR] gave an MIC [36] of 29.8 µM (≈ 64 µg/mL), an MIC [14] of 7.46 µM (≈ 16 µg/mL) and an MIC [37] of 7.46 µM (≈ 16 µg/mL). The MIC [20] was 7.46 µM (≈ 16 µg/mL) and the MIC (Staphylococcus aureus) was 5.28 µM (≈ 11.3 µg/mL).
